# Measured values as given in patent publication US8445492B2, “Method for inhibiting growth of cancer cells and cell telomere and diseases of cell proliferation by using heteroannelated anthraquinone derivative compounds” (National Defense Medical Center, priority 2008, dated 2013).
# Read-outs that look alike come from different tables or passages of the source.
# Columns and labels:
# [1] = test system: MOLT-4; experiment: in vitro test at 1.0×10^−5 M, Blood cancer cell; type: cell-based; conditions: 1.0×10^−5 molal concentration (M)
# [2] = test system: ACHN; experiment: in vitro test at 1.0×10^−5 M, Kidney cancer cell; type: cell-based; conditions: 1.0×10^−5 molal concentration (M)
# [3] = test system: EKVX; conditions: for TGI: EKVX
# [4] = test system: SN12C; experiment: in vitro test at 1.0×10^−5 M, Kidney cancer cell; type: cell-based; conditions: 1.0×10^−5 molal concentration (M)
# [5] = test system: HS 578T; experiment: in vitro test at 1.0×10^−5 M, Breast cancer cell; type: cell-based; conditions: 1.0×10^−5 molal concentration (M)
# [6] = test system: SK-MEL-2; experiment: in vitro test at 1.0×10^−5 M, Skin cancer cell; type: cell-based; conditions: 1.0×10^−5 molal concentration (M)
# [7] = test system: OVCAR-4; experiment: in vitro test at 1.0×10^−5 M, Ovary cancer cell; type: cell-based; conditions: 1.0×10^−5 molal concentration (M)
# [8] = test system: HOP-92; conditions: for TGI: HOP-92
# [9] = test system: U251; experiment: NCI DTP in-vitro dose response, CNS Cancer; type: cell-based
# [10] = test system: HCT-15; experiment: NCI DTP in-vitro dose response, Colon Cancer; type: cell-based
# [11] = test system: NCI/ADR-RES; experiment: NCI DTP in-vitro dose response, Breast Cancer; type: cell-based
# [12] = test system: CAKI-1; experiment: NCI DTP in-vitro dose response, Renal Cancer; type: cell-based
# [13] = test system: T-47D; experiment: NCI DTP in-vitro dose response, Breast Cancer; type: cell-based
# [14] = test system: MALME-3M; experiment: NCI DTP in-vitro dose response, Melanoma; type: cell-based
# [15] = test system: UO-31; experiment: NCI DTP in-vitro dose response, Renal Cancer; type: cell-based
# [16] = test system: UACC-257; experiment: NCI DTP in-vitro dose response, Melanoma; type: cell-based
# [17] = test system: SNB-19; experiment: NCI DTP in-vitro dose response, CNS Cancer; type: cell-based
# [18] = test system: LOX IMVI; experiment: NCI DTP in-vitro dose response, Melanoma; type: cell-based
# [19] = test system: HCT-116; experiment: NCI DTP in-vitro dose response, Colon Cancer; type: cell-based
# [20] = test system: SF-295; experiment: NCI DTP in-vitro dose response, CNS Cancer; type: cell-based
# [21] = test system: A498; experiment: NCI DTP in-vitro dose response, Renal Cancer; type: cell-based
# [22] = test system: M14; experiment: NCI DTP in-vitro dose response, Melanoma; type: cell-based
structure (smiles),measurement,setting,value
"CCc1nc2ccc3c(c2[nH]1)C(=O)c1ccccc1C3=O [No. 4, 2-Ethyl-1(3)H-anthra[1,2-d]imidazole-6,11-dione]",inhibition effect on cancer cell line (Table 2 value),[1],64.17
same,inhibition effect on cancer cell line (Table 2 value),[2],24.97
same,TGI,[3],9.43E−5
same,Percent Growth,[3]; Log10 Concentration −5.0,15%
same,Percent Growth,[3]; Log10 Concentration −6.0,59%
same,Percent Growth,[3]; Log10 Concentration −7.0,82%
same,Percent Growth,[3]; Log10 Concentration −8.0,88%
same,inhibition effect on cancer cell line (Table 2 value),[4],68.53
same,inhibition effect on cancer cell line (Table 2 value),[5],−18.58
same,inhibition effect on cancer cell line (Table 2 value),[6],40.07
same,inhibition effect on cancer cell line (Table 2 value),[7],48.81
same,TGI,[8],>1.00E−4
same,Percent Growth,[8]; Log10 Concentration −4.0,23%
same,Percent Growth,[8]; Log10 Concentration −5.0,48%
same,Percent Growth,[8]; Log10 Concentration −6.0,64%
same,Percent Growth,[8]; Log10 Concentration −7.0,80%
same,Percent Growth,[8]; Log10 Concentration −8.0,93%
"O=C1c2ccccc2C(=O)c2c1ccc1nsnc21 [No. 22, Anthra[2,1-c][1,2,5]thiadiazole-6,11-dione]",GI50,"[9]; Homo sapiens, U-251",1.6 µM
same,CC50,"[9]; Homo sapiens, U-251, read-out: LC50",8.32 µM
same,Percent Growth,[9]; Log10 Concentration −4.0,−63%
same,Percent Growth,[9]; Log10 Concentration −5.0,−61%
same,Percent Growth,[9]; Log10 Concentration −6.0,78%
same,Percent Growth,[9]; Log10 Concentration −7.0,104%
same,Percent Growth,[9]; Log10 Concentration −8.0,106%
same,TGI,[9]; U251,3.65E−6
same,TGI,[3],7.03E−6
same,Percent Growth,[3]; Log10 Concentration −4.0,−62%
same,Percent Growth,[3]; Log10 Concentration −5.0,−15%
same,Percent Growth,[3]; Log10 Concentration −6.0,84%
same,Percent Growth,[3]; Log10 Concentration −7.0,89%
same,Percent Growth,[3]; Log10 Concentration −8.0,96%
same,TGI,[10]; HCT-15,7.80E−6
same,GI50,"[10]; Homo sapiens, HCT-15",2.49 µM
same,CC50,"[10]; Homo sapiens, HCT-15, read-out: LC50",90.6 µM
same,Percent Growth,[10]; Log10 Concentration −4.0,−52%
same,Percent Growth,[10]; Log10 Concentration −5.0,−11%
same,Percent Growth,[10]; Log10 Concentration −6.0,90%
same,Percent Growth,[10]; Log10 Concentration −7.0,104%
same,Percent Growth,[10]; Log10 Concentration −8.0,110%
same,GI50,"[11]; Homo sapiens, NCI/ADR-RES",0.432 µM
same,CC50,"[11]; Homo sapiens, NCI/ADR-RES, read-out: LC50",> 100 µM
same,Percent Growth,[11]; Log10 Concentration −4.0,−17%
same,Percent Growth,[11]; Log10 Concentration −5.0,−10%
same,Percent Growth,[11]; Log10 Concentration −6.0,20%
same,Percent Growth,[11]; Log10 Concentration −7.0,102%
same,Percent Growth,[11]; Log10 Concentration −8.0,107%
same,TGI,[11]; NCI/ADR-RES,4.80E−6
same,TGI,[12]; CAKI-1,6.16E−6
same,GI50,"[12]; Homo sapiens, CAKI-1",2.18 µM
same,CC50,"[12]; Homo sapiens, CAKI-1, read-out: LC50",41.5 µM
same,Percent Growth,[12]; Log10 Concentration −4.0,−66%
same,Percent Growth,[12]; Log10 Concentration −5.0,−23%
same,Percent Growth,[12]; Log10 Concentration −6.0,88%
same,Percent Growth,[12]; Log10 Concentration −7.0,95%
same,Percent Growth,[12]; Log10 Concentration −8.0,90%
same,GI50,"[13]; Homo sapiens, T47D",0.375 µM
same,CC50,"[13]; Homo sapiens, T47D, read-out: LC50",7.79 µM
same,Percent Growth,[13]; Log10 Concentration −4.0,−60%
same,Percent Growth,[13]; Log10 Concentration −5.0,−59%
same,Percent Growth,[13]; Log10 Concentration −6.0,22%
same,Percent Growth,[13]; Log10 Concentration −7.0,88%
same,Percent Growth,[13]; Log10 Concentration −8.0,91%
same,TGI,[13]; T-47D,1.87E−6
same,GI50,"[14]; Homo sapiens, Malme-3M",2.37 µM
same,CC50,"[14]; Homo sapiens, Malme-3M, read-out: LC50",9.55 µM
same,Percent Growth,[14]; Log10 Concentration −4.0,−72%
same,Percent Growth,[14]; Log10 Concentration −5.0,−53%
same,Percent Growth,[14]; Log10 Concentration −6.0,112%
same,Percent Growth,[14]; Log10 Concentration −7.0,115%
same,Percent Growth,[14]; Log10 Concentration −8.0,102%
same,TGI,[14]; MALME-3M,4.76E−6
same,GI50,"[15]; Homo sapiens, UO-31",1.95 µM
same,CC50,"[15]; Homo sapiens, UO-31, read-out: LC50",7.41 µM
same,Percent Growth,[15]; Log10 Concentration −4.0,−66%
same,Percent Growth,[15]; Log10 Concentration −5.0,−72%
same,Percent Growth,[15]; Log10 Concentration −6.0,100%
same,Percent Growth,[15]; Log10 Concentration −7.0,118%
same,Percent Growth,[15]; Log10 Concentration −8.0,111%
same,TGI,[15]; UO-31,3.81E−6
same,inhibition effect on cancer cell line (Table 2 value),[5],−7.40
same,GI50,"[16]; Homo sapiens, UACC-257",1.48 µM
same,CC50,"[16]; Homo sapiens, UACC-257, read-out: LC50",6.21 µM
same,Percent Growth,[16]; Log10 Concentration −4.0,−91%
same,Percent Growth,[16]; Log10 Concentration −5.0,−83%
same,Percent Growth,[16]; Log10 Concentration −6.0,77%
same,Percent Growth,[16]; Log10 Concentration −7.0,101%
same,Percent Growth,[16]; Log10 Concentration −8.0,96%
same,TGI,[16]; UACC-257,3.03E−6
same,GI50,"[17]; Homo sapiens, SNB-19",1.86 µM
same,CC50,"[17]; Homo sapiens, SNB-19, read-out: LC50",6.43 µM
same,Percent Growth,[17]; Log10 Concentration −4.0,−98%
same,Percent Growth,[17]; Log10 Concentration −5.0,−86%
same,Percent Growth,[17]; Log10 Concentration −6.0,100%
same,Percent Growth,[17]; Log10 Concentration −7.0,101%
same,Percent Growth,[17]; Log10 Concentration −8.0,102%
same,TGI,[17]; SNB-19,3.46E−6
same,GI50,"[18]; Homo sapiens, LOX IMVI",1.03 µM
same,CC50,"[18]; Homo sapiens, LOX IMVI, read-out: LC50",> 100 µM
same,TGI,[18]; LOX IMVI,3.56E−6
same,Percent Growth,[18]; Log10 Concentration −4.0,−33%
same,Percent Growth,[18]; Log10 Concentration −5.0,−42%
same,Percent Growth,[18]; Log10 Concentration −6.0,51%
same,Percent Growth,[18]; Log10 Concentration −7.0,98%
same,Percent Growth,[18]; Log10 Concentration −8.0,101%
same,TGI,[19]; HCT-116,1.06E−5
same,GI50,"[19]; Homo sapiens, HCT-116",2.84 µM
same,CC50,"[19]; Homo sapiens, HCT-116, read-out: LC50",> 100 µM
same,Percent Growth,[19]; Log10 Concentration −4.0,−31%
same,Percent Growth,[19]; Log10 Concentration −5.0,1%
same,Percent Growth,[19]; Log10 Concentration −6.0,91%
same,Percent Growth,[19]; Log10 Concentration −7.0,97%
same,Percent Growth,[19]; Log10 Concentration −8.0,99%
same,GI50,"[20]; Homo sapiens, SF-295",3.08 µM
same,CC50,"[20]; Homo sapiens, SF-295, read-out: LC50",93.9 µM
same,Percent Growth,[20]; Log10 Concentration −4.0,−51%
same,Percent Growth,[20]; Log10 Concentration −5.0,−3%
same,Percent Growth,[20]; Log10 Concentration −6.0,100%
same,Percent Growth,[20]; Log10 Concentration −7.0,105%
same,Percent Growth,[20]; Log10 Concentration −8.0,102%
same,TGI,[20]; SF-295,9.40E−6
same,TGI,[21]; A498,>1.00E−4
same,GI50,"[21]; Homo sapiens, A498",> 100 µM
same,CC50,"[21]; Homo sapiens, A498, read-out: LC50",> 100 µM
same,Percent Growth,[21]; Log10 Concentration −4.0,84%
same,Percent Growth,[21]; Log10 Concentration −5.0,100%
same,Percent Growth,[21]; Log10 Concentration −6.0,96%
same,Percent Growth,[21]; Log10 Concentration −7.0,104%
same,Percent Growth,[21]; Log10 Concentration −8.0,105%
same,TGI,[8],9.84E−6
same,Percent Growth,[8]; Log10 Concentration −4.0,−27%
same,Percent Growth,[8]; Log10 Concentration −5.0,−1%
same,Percent Growth,[8]; Log10 Concentration −6.0,94%
same,Percent Growth,[8]; Log10 Concentration −7.0,88%
same,Percent Growth,[8]; Log10 Concentration −8.0,95%
same,GI50,"[22]; Homo sapiens, M14",2.44 µM
same,CC50,"[22]; Homo sapiens, M14, read-out: LC50",> 100 µM
same,Percent Growth,[22]; Log10 Concentration −4.0,−41%
same,Percent Growth,[22]; Log10 Concentration −5.0,−32%
same,Percent Growth,[22]; Log10 Concentration −6.0,102%
same,Percent Growth,[22]; Log10 Concentration −7.0,100%
same,Percent Growth,[22]; Log10 Concentration −8.0,100%
same,TGI,[22]; M14,5.78E−6
